Among the data in patent US5817646A, “Polar lipid composition of plant origin” (Laboratoires Inocosm, priority 1991, dated 1998) are inhibition values, retold here.

The target of this assay is T1, human leukocytic elastase (HLE) (Homo sapiens, UniProt P08246).
T1 sequence (P08246 30-267): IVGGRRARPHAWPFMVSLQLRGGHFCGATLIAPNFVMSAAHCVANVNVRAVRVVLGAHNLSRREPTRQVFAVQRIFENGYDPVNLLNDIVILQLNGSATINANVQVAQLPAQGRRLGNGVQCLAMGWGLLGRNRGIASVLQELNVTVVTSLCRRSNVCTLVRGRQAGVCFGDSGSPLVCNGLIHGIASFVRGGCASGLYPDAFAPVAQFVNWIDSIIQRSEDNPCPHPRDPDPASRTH
Description: Inhibition of human leukocytic elastase, kinetics of p-nitroaniline release at 410 nm. Particulars: read-out: percentage of inhibition of the anti-elastase activity after 10 min. It counts as biochemical. On the procedure:
A test to ascertain the activity of a polar lipid mixture in accordance with the invention on the inhibition of a specific enzyme, human leukocytic elastase (HLE), was carried out at the Connective Tissue Laboratory of the CNRS at Cretail (France). HLE is able to destroy elastin and therefore cause cell aging. HLE also detrimentally effects the arterial walls.
The activity of the mixture in accordance with the invention was compared with that of oleic acid, the reference substance.
This test measures the inhibition of the enzymatic activity by different preparations tested by following the kinetics at 410 nm of the degradation of a substrate, S, corresponding essentially to elastin: Me-O-Suc-Ala2 -Pro-Val-pNa(N-Methoxy-succinyl-Ala-Ala-Pro-Val-p-Nitroanilide). In this test, changes in the concentration of p-Nitroaniline, released due to the effect of the activity of HLE on the substrate, S, is measured over time.
In order to carry out these tests:
either 0.1M Tris-Cl+0.01% Triton X-100 at pH 8
was used as the reaction buffer, B. […]
Spectrophotometer readings were taken at 410 nm relative to the p-Nitroaniline concentration and the results obtained were then transferred to Curves 1 to 5, which correspond to the cell samples of the same numbering. […]
On each of these curves, the time in min was recorded on the abscissa and the optical deviation, OD, read at 410 nm, was recorded on the ordinate. […]

As for `CCCCCCCC/C=C\CCCCCCCC(=O)O` [Reference oleic acid, oleic acid], under “oleic acid at 0.1 μg/ml”, the inhibition (in general, how much of the control response was suppressed) at 0.1 µg/mL worked out at 36%. Further, the inhibition at 1 µg/mL (oleic acid at 1.0 μg/ml) amounted to 84%.
